These compounds were tested against FABP4 (Homo sapiens, UniProt P15090) (assay: TdF (Temperature Dependence Fluorescence) assay, thermal shift, FABP4).
Format: binding
Procedure, shortened: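 Binding measured as ΔTm versus protein alone; binding constants derived by nonlinear fitting with ΔHL set to −7 kcal/mol and ΔCpL to zero.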

Chain of FABP4 (P15090 whole entry, species assumed): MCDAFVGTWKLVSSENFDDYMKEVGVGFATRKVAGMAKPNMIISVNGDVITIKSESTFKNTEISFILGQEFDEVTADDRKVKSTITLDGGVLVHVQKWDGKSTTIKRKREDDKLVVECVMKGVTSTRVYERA

Row | Compound | Kd | FABP4 TdF Kd
1 | CC1(NC(=O)c2ccccc2OCc2[nH]c3nc(-c4ccccc4)nn3c(=O)c2Cl)COC1 [24-11] | > 500 nM | 
2 | CCc1ccc(NCc2cc(=O)n3nc(CC)nc3[nH]2)cc1 [5-8] | > 500 nM | 
3 | O=c1cc(COC2CCC2)[nH]c2nc(-c3ccccc3)nn12 [1-20] | > 500 nM | 
4 | O=C(NCCC1CC1)c1ccccc1OCc1[nH]c2nc(-c3ccccc3)nn2c(=O)c1Cl [24-14] |  | B (0.5 ≦ B < 0.001 μM)
5 | O=c1cc(CNC2CCc3c(Cl)cccc32)[nH]c2nc(-c3ccccc3)nn12 (stereo not shown) [1-52] |  | B (0.5 ≦ B < 0.001 μM)
6 | CCc1ccc(NCc2cc(=O)n3nc(C)nc3[nH]2)cc1 [5-7] | > 500 nM | 
7 | COCC1(CNC(=O)c2ccccc2OCc2[nH]c3nc(-c4ccccc4)nn3c(=O)c2Cl)CC1 [24-17] |  | B (0.5 ≦ B < 0.001 μM)
8 | CC1(C)CCC(OCc2cc(=O)n3nc(-c4ccccc4)nc3[nH]2)CC1 [1-147] |  | B (0.5 ≦ B < 0.001 μM)
9 | O=c1cc(COc2ccccc2Br)[nH]c2nc(-c3ccccc3)nn12 [1-73] |  | B (0.5 ≦ B < 0.001 μM)
10 | O=c1cc(COc2cccc(C(F)(F)F)c2)[nH]c2nc(C(F)(F)F)nn12 [5-3] | > 500 nM | 
11 | O=c1cc(COc2ccc(Br)cc2)[nH]c2nc(-c3ccccc3)nn12 [1-61] | > 500 nM | 
12 | O=c1cc(COC2CCCCC2)[nH]c2nc(-c3ccccc3)nn12 [1-21] |  | B (0.5 ≦ B < 0.001 μM)
13 | Cc1ccc2ccccc2c1OCc1cc(=O)n2nc(-c3ccccc3)nc2[nH]1 [1-27] |  | B (0.5 ≦ B < 0.001 μM)
14 | O=c1cc(CN2CCCC2Cc2cccc(Cl)c2)[nH]c2nc(-c3ccccc3)nn12 (stereo not shown) [1-57] |  | B (0.5 ≦ B < 0.001 μM)
15 | Nc1c(Cl)cccc1OCc1cc(=O)n2nc(-c3ccccc3)nc2[nH]1 [1-136] |  | B (0.5 ≦ B < 0.001 μM)
16 | COc1cc2c(cc1OC)CN(Cc1cc(=O)n3nc(-c4ccccc4)nc3[nH]1)C2 [6-5] | > 500 nM | 
17 | O=C(NC1CCCCC1)c1ccccc1OCc1[nH]c2nc(-c3ccccc3)nn2c(=O)c1Cl [24-13] |  | B (0.5 ≦ B < 0.001 μM)

The next lines start with the values.

Row | Kd | FABP4 TdF Kd | Compound
18 |  | B (0.5 ≦ B < 0.001 μM) | Cc1c(Cl)cccc1OC(C)c1cc(=O)n2nc(-c3ccccc3)nc2[nH]1 (single isomer, unassigned) [37-7]
19 | > 500 nM |  | O=C(O)C1(OCc2cc(=O)n3nc(-c4ccccc4)nc3[nH]2)CCCC1 [48-78]
20 |  | B (0.5 ≦ B < 0.001 μM) | CN(C(=O)C1(OCc2cc(=O)n3nc(-c4ccccc4)nc3[nH]2)CCCCC1)C1CC1 [48-28]
21 |  | B (0.5 ≦ B < 0.001 μM) | CC(C)(CNC(=O)c1c(Cl)cccc1OCc1cc(=O)n2nc(-c3ccccc3)nc2[nH]1)N1CCOCC1 [47-22, 2-chloro-N-(2-methyl-2-morpholinopropyl)-6-((7-oxo-2-phenyl-4,7-dihydro-[1,2,4]triazolo[1,5-a]pyrimidin-5-yl)methoxy)benzamide]
22 |  | B (0.5 ≦ B < 0.001 μM) | O=C(NCC1(O)CCCC1)C1(OCc2cc(=O)n3nc(-c4ccccc4)nc3[nH]2)CCCCC1 [48-60]
23 |  | B (0.5 ≦ B < 0.001 μM) | O=C(N1C[C@@H]2C[C@@H]2[C@H]1CO)C1(OCc2cc(=O)n3nc(-c4ccccc4)nc3[nH]2)CCCCC1 [48-7, 5-((1-((1S,2S,5R)-2-(hydroxymethyl)-3-azabicyclo[3.1.0]hexane-3-carbonyl)cyclohexyloxy)methyl)-2-phenyl-[1,2,4]triazolo[1,5-a]pyrimidin-7(4H)-one]
24 |  | B (0.5 ≦ B < 0.001 μM) | COc1ccccc1C1(CNC(=O)c2c(Cl)cccc2OCc2cc(=O)n3nc(-c4ccccc4)nc3[nH]2)CC1 [47-48]
25 |  | B (0.5 ≦ B < 0.001 μM) | O=C(NC1CCc2c(Cl)cccc21)C1(OCc2cc(=O)n3nc(-c4ccccc4)nc3[nH]2)CCCCC1 (stereo not shown) [48-63]
26 |  | B (0.5 ≦ B < 0.001 μM) | O=C(Nc1c(Cl)cccc1OCc1cc(=O)n2nc(-c3ccccc3)nc2[nH]1)C1CCCC1 [49-4]
27 | > 500 nM |  | Cc1c(Cl)cccc1OCc1cc(=O)n2nc(-c3ccccc3F)nc2[nH]1 [25-8]
28 |  | B (0.5 ≦ B < 0.001 μM) | Cn1nc(C2CC2)cc1NC(=O)C1(OCc2cc(=O)n3nc(-c4ccccc4)nc3[nH]2)CCCCC1 [48-39]
